Results reported in patent publication US7943309B2, “HLA alleles associated with adverse drug reactions and methods for detecting such” (Pharmigene Inc., priority 2006, dated 2011).
Where “and” joins values, the source holds several entries; their conditions need not be identical. Equal values may be shown once.

Experiments:
CBZ-reactive T cells = assay: Cross-reactivity of CBZ-reactive T cells (interferon-γ ELISPOT); format: cell-based, human; conditions: T cells of HLA-B*1502 patients with CBZ-induced SJS/TEN, autologous B cells, 24 hours
Text: Two patients having CBZ-induced SJS/TEN were recruited from Chang Gung Memorial Hospital. […] Genomic DNAs were extracted from the patients using […] DNA purification system (Gentra systems, Minnesota, USA). The HLA-B alleles were verified using sequence-specific oligonucleotide reverse line blots (DYNAL Biotech Ltd., Bromborough, U.K.).
Peripheral blood mononuclear cells (PBMCs) were isolated from the patients by Ficoll-Isopaque (Pharmacia Fine Chemicals, Piscataway, N.J.) density gradient centrifugation. A portion of the PBMCs were transformed by Epstein-Bar virus to establish autologous B-cell lines.
T cells reactive to CBZ were expanded as described below. PBMCs prepared from the patients were cultured in complete RPMI medium containing 10% heat-inactivated human serum, IL-2 (25 U/ml), and CBZ (25 μg/ml)(Sigma) in a 37° C., 5% CO2 incubator for 7 days. The T cells were then expanded by co-culturing with irradiated (50Gy) autologous B cells in the presence of CBZ for 10 days. After 2 cycles of the above co-culturing procedure, the CBZ-activated T cells were collected and subjected to ELISPOT assays (eBioscience).
The CBZ-reactive T cells were tested for their cross-reactivity to compounds e.g., CBZ 10, 11-epoxide, Oxcarbazepine (brand name: trileptal), Licarbazepine, and sunlindac. Briefly, T lymphocytes (5×10^3 cells) were mixed with autologous B cells (5×10^4 cells) in 200 μl RPMI medium containing 10% FBS in the presence or absence of a test compound. The cells were then incubated for 24 hours in the wells of an ELISPOT plate coated with anti-interferon γ antibodies (Millipore). After incubation, the supernatant of the cell culture was collected and interferon-γ contained therein was detected using antibody-mediated methods known in the art.

A*3303 = conditions: number (%)
DRB1*0301 = conditions: number (%)
HLA-Cw*0806 = assay: Marker of B*1502 ancestral haplotype and ADRs: HLA-Cw*0806
Text: (§1) All of these patients were subjected to genotyping. Briefly, reagents for performing a reverse line blot assay using sequence-specific oligonucleotide (SSO) were purchased from DYNAL Biotech Ltd. (Bromborough, UK). PCR products were generated using biotinylated primers for the second and the third exons of the HLA class I or class II loci, and then hybridized to a line blot of SSO of probes immobilized on a nylon membrane. The presence of biotinylated PCR product bound to a specific probe is detected using streptavidin-horseradish peroxidase (HRP) and a chromogenic, soluble substrate to produce a blue “line” at the position of the positive probe. The probe reactivity pattern was interpreted by the genotyping software Dynal RELI™ SSO (DYNAL Biotech Ltd.; Bromborough, UK). Potential ambiguities were further resolved by sequence-based typing and DNA sequencing performed according to the IHWG Technical Manual (International Histocompatibility Working Group), see Genomic Analysis of the Human MHC DNABased Typing for HLA Alleles and Linked Polymorphisms. Marcel G. J. Tilanus, Editor in Chief, ISBN No. 0-945278-02-0.

HLA-Cw*0801 = assay: Marker of B*1502 ancestral haplotype and ADRs: HLA-Cw*0801
Text: as §1

[1] = Onset of allopurinol-induced ADR symptoms; format: in vivo, human
[2] = Clinical phenotype of drug-induced cutaneous ADR in individual patients; format: in vivo, human
Protocol: A total of 238 ADR patients (Mongoloids or Mongoloid descendents) were recruited either from Chang Gung Memorial Hospital or from several other medical centers throughout Taiwan for this study. Their drug-taking history including dosage and duration, and the phenotypes of ADRs were recorded. The diagnostic criteria of clinical morphology were defined according to Roujeau, J. Invest Dermatol., 102(6):28S-30S, 1994. […] SJS, overlap SJS-TEN and TEN are collectively referred to as SJS/TEN.

HLA-B*1502 = assay: Association of HLA-B*1502 with drug-induced SJS/TEN (HLA genotyping, case-control); set-up: species or system human; conditions: for number of HLA-B*1502-positive SJS/TEN patients who received the drug: among 17 carriers of 53 SJS/TEN patients who received other drugs
Protocol: 73 tegretol-tolerant patients were included as controls. […] All of these patients were subjected to genotyping. […] SSO (DYNAL Biotech Ltd.; Bromborough, UK). […] Marcel G. J. […] To some patients, SNP genotyping was performed using high throughput MALDI-TOF mass spectrometry. Briefly, primers and probes were designed using the Spectro[…] software (Sequenom, San Diego, Calif., USA). Multiplex polymerase chain reactions (PCR) were performed, the unincorporated dNTPs were dephosphorylated using the shrimp alkaline phosphatase (Hoffman-LaRoche, Basel, Switzerland), followed by primer extension. The purified primer extension reaction was spotted onto a 384-element silicon chip (SpectroCHIP, Sequenom), analyzed using a Bruker Biflex III MALDI-TOF SpectroREADER mass spectrometer (Sequenom) and spectra processed with […] (Sequenom).

Cw*0302 = conditions: number (%)
HLA-B*5801 = assay: Association of HLA-B*5801 with allopurinol-induced severe ADRs (HSS, SJS, TEN); conditions: for B*5801 frequency, Allopurinol-tolerant: n = 98
HLA-DRB1*1202 = tested on: HLA-DRB1*1202
Text: as §1

HLA-A*1101 = tested on: HLA-A*1101
Text: as §1

HLA-B*4601 = assay: Association of HLA-B*4601 with CBZ-induced milder cutaneous ADRs (HLA genotyping); set-up: species or system human
Text: 73 tegretol-tolerant patients were included as controls. Volunteers from the general population of Taiwanese (n=94; age range: 20 to 80 years) were also recruited.
All of these patients were subjected to genotyping.
In contrast, the allele was only found in 26% (19/73) of the CBZ-tolerant group.

[3] = relative to the allopurinol-tolerant group

Compound: NC(=O)N1c2ccccc2C2OC2c2ccccc21 (stereo not drawn) [CBZ 10, 11-epoxide]
- cross-reactivity of CBZ-reactive T cells to the compound (CBZ-reactive T cells): cross-reactive

Compound: NC(=O)N1c2ccccc2CC(=O)c2ccccc21 [Oxcarbazepine, 5H-Dibenz[b,f]azepine-5-carboxamide, 10,11-dihydro-10-oxo]
- cross-reactivity of CBZ-reactive T cells to the compound (CBZ-reactive T cells): cross-reactive

Compound: CC1=C(CC(=O)O)c2cc(F)ccc2/C1=C\c1ccc([S+](C)[O-])cc1 (stereo not drawn) [Sulindac]
- cross-reactivity of CBZ-reactive T cells to the compound (CBZ-reactive T cells): not

Compound: Oc1ncnc2[nH]ncc12 [allopurinol, Allopurinol]
- A*3303 frequency, Allopurinol-ADRs (A*3303; n = 31): 20 (64.5%)
- A*3303 frequency, Allopurinol-tolerant (A*3303; n = 98): 18 (18.4%)
- DRB1*0301 frequency, Allopurinol-ADRs (DRB1*0301; n = 31): 21 (67.7%)
- DRB1*0301 frequency, Allopurinol-tolerant (DRB1*0301; n = 98): 14 (14.3%)
- HLA-Cw*0806 frequency, Allopurinol SJS/TEN (HLA-Cw*0806; n = 17, number (%)): 0 (0%)
- HLA-Cw*0801 frequency, Allopurinol SJS/TEN (HLA-Cw*0801; n = 17, number (%)): 2 (11.7%)
- second attack after re-exposure to allopurinol ([1]; 2 patients): ≤ 2 days
- onset of HSS symptoms after start of allopurinol exposure ([1]; all of the 31 patients): ≤ 2 months
- Phenotype ([2]; individual patient, cutaneous ADR to the suspected drug): SJS (11×) and SJS and vasculitis on leg and SJS, and lichenoid and TEN
- Phenotype ([2]; individual patient, cutaneous ADR to the suspected drug, listed as Allopurinol): SJS
- Phenotype ([2]; individual patient, cutaneous ADR to the suspected drug, listed as alloprinol): SJS
- number of HLA-B*1502-positive SJS/TEN patients who received the drug (HLA-B*1502): 2
- HLA-B*1502 frequency, Allopurinol SJS/TEN (HLA-B*1502; n = 17, carriers, number (%)): 1 (5.8%)
- Cw*0302 frequency, Allopurinol-ADRs (Cw*0302; n = 31): 29 (93.5%)
- Cw*0302 frequency, Allopurinol-tolerant (Cw*0302; n = 98): 15 (15.3%)
- sensitivity of HLA-B*5801 for allopurinol-induced severe ADRs (HLA-B*5801): 100%
- specificity of HLA-B*5801 for allopurinol-induced severe ADRs (HLA-B*5801): 84%
- Odds ratio (Allopurinol-ADRs/Normal), B*5801 (HLA-B*5801; 31 ADR patients vs 93 normal subjects): 241
- Odds ratio (Allopurinol-ADRs/Tolerant), B*5801 (HLA-B*5801; 31 ADR patients vs 98 tolerant patients): 315
- B*5801 frequency, Allopurinol-ADRs (severe ADRs) (HLA-B*5801; n = 31, carriers, number (%)): 31 (100%)
- B*5801 frequency, Allopurinol-tolerant (HLA-B*5801; carriers, number (%)): 16 (16.3%)
- B*5801 frequency, Allopurinol-tolerant (HLA-B*5801; carriers, number (%), listed as Allopurinol): 16 (16.3%)^1
- negative predictive value, absence of HLA-B*5801, allopurinol-induced ADRs (HLA-B*5801; [3]): 100%
- positive predictive value, presence of HLA-B*5801, allopurinol-induced ADRs (HLA-B*5801; [3]): 66%

Compound: CC1(C)S[C@@H]2[C@H](NC(=O)[C@H](N)c3ccc(O)cc3)C(=O)N2[C@H]1C(=O)O [amoxicillin]
- number of HLA-B*1502-positive SJS/TEN patients who received the drug (HLA-B*1502): 2

Compound: (S)-(−)-10-acetoxy-10,11- dihydro-5H-dibenzo/b,f/ azepine-5-carboxamide [Licarbazepine]
- cross-reactivity of CBZ-reactive T cells to the compound (CBZ-reactive T cells): cross-reactive

Compound: carbamazepine [CBZ]
- HLA-Cw*0806 frequency, CBZ SJS/TEN (HLA-Cw*0806): 3 (7.1%)
- HLA-Cw*0806 frequency, CBZ Tolerant (HLA-Cw*0806): 0 (0%)
- HLA-DRB1*1202 frequency, CBZ SJS/TEN (HLA-DRB1*1202): 35 (83.3%)
- HLA-A*1101 frequency, CBZ SJS/TEN (HLA-A*1101): 31 (73.8%)
- HLA-Cw*0801 frequency, CBZ SJS/TEN (HLA-Cw*0801): 38 (90%)
- HLA-Cw*0801 frequency, CBZ Tolerant (HLA-Cw*0801): 10 (13.7%)
- HLA-B*4601 carriers among patients with milder reactions to CBZ (HLA-B*4601; 10 out of 16): 62.5%
- HLA-B*4601 carriers in the CBZ-tolerant group (HLA-B*4601; 19/73): 26%
- odds ratio, B*4601, CBZ-induced milder cutaneous ADRs (HLA-B*4601; vs CBZ-tolerant group): 4.73
- Phenotype ([2]; human, in vivo): SJS
- HLA-B*1502 frequency, CBZ-tolerant patients (HLA-B*1502; N = 73, carriers, number (%)): 3 (4.1%)
- HLA-B*1502 frequency, patients with CBZ-induced SJS/TEN (HLA-B*1502; Taiwanese patients, N = 42, carriers, number (%)): 42 (100%)
- HLA-B*1502 frequency, CBZ Milder ADRs (HLA-B*1502; n = 16, carriers, number (%)): 0 (0%)
- HLA-B*1502 carriers among SJS/TEN patients who received the drug (HLA-B*1502; text of Example 3): 100%
- HLA-B*1502 carriers in the drug-tolerant group (HLA-B*1502; text of Example 3): 4.1%
- negative predictive value of B*1502 for CBZ-induced SJS/TEN (HLA-B*1502; tolerant group as control): 100%
- positive predictive value of B*1502 for CBZ-induced SJS/TEN (HLA-B*1502; tolerant group as control): 96.0%
- sensitivity of B*1502 for CBZ-induced SJS/TEN (HLA-B*1502; tolerant group as control): 100%
- specificity of B*1502 for CBZ-induced SJS/TEN (HLA-B*1502; tolerant group as control): 95.89%
- Odds Ratio, B*1502, CBZ-induced SJS/TEN (HLA-B*1502; vs Controls1: patients who had milder ADRs other than SJS, N = 142): 1194.47
- Odds Ratio, B*1502, CBZ-induced SJS/TEN (HLA-B*1502; vs Controls2: general Taiwanese population, N = 94): 1383.2
- Odds Ratio, B*1502, CBZ-induced SJS/TEN (HLA-B*1502; vs Controls3: CBZ-tolerant patients, N = 73): 1712
